# Experimental data reported in patent US5688789A, “PCP receptor ligands and the use thereof” (State of Oregon, acting by and through the Oregon State …, priority 1995, dated 1997).
# Assays:
# PCP receptor [1] = test: PCP receptor binding against 3H-MK-801 (Example 5, Table 1); conditions: vs. 3H-MK-801; ± sem (n)
# Procedure: The PCP receptor binding properties of various compounds of the invention against ^3 H-5-methyl-10,11-dihydro-5H-dibenzo[a,d]cycloheptene-5,10-imine (^3 H-MK-801) were determined.
# PCP receptor [2] = test: PCP receptor affinity of IDDC analogs vs. [3H]MK-801 in rat brain membrane (Example 10, Table 2); conditions: read-out: PCP Receptor Affinity IC50 in Rat Brain Membrane vs. [3H]MK-801, MEAN
# rat hippocampal cells = test: In vitro neurotoxicity assay: protection against glutamate, Trypan Blue survival count (Example 7); format: cell-based; conditions: 5 uM, glutamate 0-1000 uM, 1 uM glycine
# Procedure: In the cytotoxicity studies, cultured mammalian neurons expressing EAA receptors are exposed in vitro to glutamate and the particular compound under investigation. The survival percentage of cells indicates the ability of the compound to protect against glutamate-induced neuronal death.
# Dissociated rat hippocampal cultures were prepared using a modification of the method of Huettner and Baughman [Huettner, J. E. and Baugham, R. W., J. Neurosci. 6:3044-3060 (1986)]. The cortices were removed from 1-3 day post-natal rats (Sprague-Dawley) that had been anesthetized with chloral hydrate, and the hippocampi were dissected out and placed in Cl^- free dissociation medium supplemented with 1 mM kynurenic acid and 10 mM MgSO4 (Choi, D. W., J. Neurosci. 7:369-379 (1987)). The hippocampi were washed in the dissociation medium, then incubated for 2×20 minutes at 37° C. in dissociation medium containing 10 units/ml of Papain (Worthington). After the enzyme treatment, the tissue was incubated for three 5-minute periods at 37° C. with 10 mg/ml trypsin inhibitor (Sigma type II-0).
# The cells were dissociated by trituration in growth medium and plated as 0.15 ml droplets of cell suspension onto the center of 35 mm Primaria (Falcon) dishes that had been stamped with a labeled 26×26 grid of approximately 0.64 cm^2 total area using a Mecanex BB form (WPI, New Haven, Conn.) and coated with poly-D-lysine and laminin (Collaborative Research). The cell density was between 2.5 and 4.0×10^5 cells per dish. The growth medium was Eagles minimum essential media (MEM, Earle's salts) supplemented with 5% fetal bovine serum (CCL), 5% defined supplemented calf serum (HyClone), 50 mM glucose, 50 units/ml penicillin/streptomycin and MITO+serum extender (Collaborative Research). The cells were maintained at 37° C. in a humidified 4.5% CO2 atmosphere. […]
# Before treatment, sister cultures were examined under phase-contrast microscopy to ensure that the cultures were of a similar density. […] The cultures were washed three times and the surviving cells counted in the grid area using phase contrast microscopy. […]
# [3] = tested on: NMDA receptor-ion channel complex; test: Whole-cell patch clamp: block of NMDA-induced currents on cultured rat hippocampal neurons (Example 6); format: cell-based; conditions: rat hippocampal neurons, compared with MK-801
# Procedure: In the electrophysiological studies the compounds are evaluated with respect to their ability to block the ion channel of the NMDA receptor channel complex and thereby inhibit Ca^2+ and Na^+ ion flow into the nerve cell. Initially, the ion channels are opened by activating the NMDA receptor. Ion flow is determined by measuring the passage of electrical current, i.e., a use-dependent decrease in electrical current indicates blocking of the ion channel due to binding of a ligand at a site within the channel.
# Hippocampal neurons were obtained from the CA1 region of the hippocampus from 1-3 day-old-newborn rats (Long-Evans). Small blocks of tissue ([…]1mm^3) were incubated in papain (20 units ml^-1; Worthington-Cooper) for 30 minutes. The tissue was dissociated into a single cell suspension by trituration with a fire-polished Pasteur pipette in complete growth medium (Earle's MEM, 20 mM glucose, 50 units/ml penicillin/streptomycin, 5% heat-inactivated fetal calf serum, Serum Extender from Collaborative Research) containing 2.5 mg/ml bovine serum albumin and 2.5 mg/ml trypsin inhibitor (Sigma). The cells were plated onto glass coverslips coated with collagen/poly-D-lysine. Cultures were fed every 3 days by replacing haft the volume of medium. Arabinosylcytosine (5×10^-6 M) was added to the cultures for 1 or 2 days during the first week after plating to suppress the proliferation of non-neuronal cells.
# All electrophysiology experiments were performed with the whole-cell mode of patch clamp recording [Hamill, O. D., Marty, A., Neher, E., Sakman, B., and Sigworth, F. J., Pflugers Arch. 391:85-100 (1981)] from neurons grown for 1-3 weeks in culture. Agonists and agonist/antagonist combinations were applied by a U-tube mol (Fenwick et al, J. Physiol. 331:577-597 (1982)) to neurons in whole-cell experiments. The external solution contained (in mM) NaCl 140, KCl 3.5, CaCl2 1, glucose 5, picrotoxinin 0.02, tetrodotoxin (TTX) 5×10^-4, and N-2-hydroxyethyl-piperazine-N'-2-ethanesulfonic acid (HEPES) 10. The pH of this solution was adjusted to 7.4 with NaOH. The internal (patch electrode) solution contained (mM) Cs-methanesulfonate 120, CsCl 10, ethyleneglycol-bis-(β-aminoethylether)-N,N,N',N'-tetraacetic acid (EGTA) 10, HEPES 10 (pH adjusted to 7.0 with CsOH). Membrane current was filtered at 4000 Hz (-3dB; 8-pole Bessel) and recorded on magnetic tape for later analysis. Experiments were performed at room temperature (20°-25° C.). [Sources of chemicals: N-methyl-D-aspartate, Cambridge Research Biochemicals; pirotoxinin, Sigma Chemical Company; salts for recording solutions, Aldrich (Gold Label) or Alfa (Puratronic). [^3 H]Kainate and [3H]CPP and [^3 H]AMPA were purchased from Dupont/NEN (Boston, Mass.)].
# Repetitive applications (every 30 s) to the same cell produced currents which varied less than 5% over a period of at least 30 minutes.
# [4] = tested on: lesions caused by NMDA injection; test: In vivo neurotoxicity assay: protection against lesions caused by cerebral NMDA injection (Example 8); conditions: about 0.30 to 60 μMol/kg, intraperitoneal, 15 minutes following cerebral NMDA injection
# From the text: In the in vivo neurotoxicity studies, the experimental model of McDonald, D. W., et al., (In: Sigma and Phencyclidine-like Compounds as Molecular Probes in Biology, Ed. Domino, E. F., and Kamenka, J.-M., pp. 697-707 (1988), NPP Books, Ann Arbor, Mich.) may be employed. In this model, NMDA injection into one cerebral hemisphere causes injury which resembles the lesion produced by hypoxia-ischemia. The ability of compounds to limit the NMDA-induced lesion is a measure of their neuroprotective properties; since the compounds may be administered intraperitoneally, the model can also provide information about a compound's ability to cross the blood-brain barrier.
# The experimental model of McDonald, J. W., et al., supra, was employed with the single alteration in protocol of an intraperitoneal injection of the test compound 15 minutes following, rather than preceding, the cerebral NMDA injection.
SMILES,IC50 (PCP receptor [1]),IC50 (PCP receptor [2]),cell survival compared to control (rat hippocampal cells),use-dependent blockage of NMDA-induced (+glycine) responses [3],protection against lesions caused by NMDA injection [4]
"c1ccc2c(c1)C[C@H]1NC[C@@H]2c2ccccc21 [(+)-IDDC, (+)-10(R),5(S)-(iminomethano)-10,11-dihydro-5H-dibenzo[a,d]cycloheptene]",40 ± 5 nM,40 nM,enhanced cell survival when compared to control values,very similar to the use dependent blocking action exhibited by MK-801,protect against the lesions caused by NMDA injection
"c1ccc2c(c1)CC1NCC2c2ccccc21 (racemic) [(±)-IDDC, (±) 10,5-(iminomethano)-10,11-dihydro-5H-dibenzo[a,d]cycloheptene]",41 ± 6 nM,74.6 nM,enhanced cell survival when compared to control values,,
